Assay results as given in patent publication US12662451B2, “Chemical compounds and uses thereof” (GLAXOSMITHKLINE INTELLECTUAL PROPERTY (NO.4) LIMITED, priority 2023, dated 2026).
Counter-ions that a name gives are not always drawn.

Key:
[1] = system: SW48 human colorectal cancer cells (MSI-H cancer cells); test: SW48 cell viability, CellTiter-Glo, 120 hours (Example B); conditions: Homo sapiens, SW48, 120 h, read-out: SW48 pCC50, SW48 cell viability, 120 hours incubation (converted); Table 2
[2] = target: T1, recombinant full-length WRN protein (1-1432) (Homo sapiens, UniProt Q14191); test: WRN unwinding activity, fluorogenic 384-well assay (Example A); type: biochemical; conditions: WRN unwinding activity, 4 hr; Table 2; read-out: 4 hr UNW pIC50 (converted)
T1 construct: recombinant full-length WRN protein (1-1432)
T1 sequence (Q14191 whole entry): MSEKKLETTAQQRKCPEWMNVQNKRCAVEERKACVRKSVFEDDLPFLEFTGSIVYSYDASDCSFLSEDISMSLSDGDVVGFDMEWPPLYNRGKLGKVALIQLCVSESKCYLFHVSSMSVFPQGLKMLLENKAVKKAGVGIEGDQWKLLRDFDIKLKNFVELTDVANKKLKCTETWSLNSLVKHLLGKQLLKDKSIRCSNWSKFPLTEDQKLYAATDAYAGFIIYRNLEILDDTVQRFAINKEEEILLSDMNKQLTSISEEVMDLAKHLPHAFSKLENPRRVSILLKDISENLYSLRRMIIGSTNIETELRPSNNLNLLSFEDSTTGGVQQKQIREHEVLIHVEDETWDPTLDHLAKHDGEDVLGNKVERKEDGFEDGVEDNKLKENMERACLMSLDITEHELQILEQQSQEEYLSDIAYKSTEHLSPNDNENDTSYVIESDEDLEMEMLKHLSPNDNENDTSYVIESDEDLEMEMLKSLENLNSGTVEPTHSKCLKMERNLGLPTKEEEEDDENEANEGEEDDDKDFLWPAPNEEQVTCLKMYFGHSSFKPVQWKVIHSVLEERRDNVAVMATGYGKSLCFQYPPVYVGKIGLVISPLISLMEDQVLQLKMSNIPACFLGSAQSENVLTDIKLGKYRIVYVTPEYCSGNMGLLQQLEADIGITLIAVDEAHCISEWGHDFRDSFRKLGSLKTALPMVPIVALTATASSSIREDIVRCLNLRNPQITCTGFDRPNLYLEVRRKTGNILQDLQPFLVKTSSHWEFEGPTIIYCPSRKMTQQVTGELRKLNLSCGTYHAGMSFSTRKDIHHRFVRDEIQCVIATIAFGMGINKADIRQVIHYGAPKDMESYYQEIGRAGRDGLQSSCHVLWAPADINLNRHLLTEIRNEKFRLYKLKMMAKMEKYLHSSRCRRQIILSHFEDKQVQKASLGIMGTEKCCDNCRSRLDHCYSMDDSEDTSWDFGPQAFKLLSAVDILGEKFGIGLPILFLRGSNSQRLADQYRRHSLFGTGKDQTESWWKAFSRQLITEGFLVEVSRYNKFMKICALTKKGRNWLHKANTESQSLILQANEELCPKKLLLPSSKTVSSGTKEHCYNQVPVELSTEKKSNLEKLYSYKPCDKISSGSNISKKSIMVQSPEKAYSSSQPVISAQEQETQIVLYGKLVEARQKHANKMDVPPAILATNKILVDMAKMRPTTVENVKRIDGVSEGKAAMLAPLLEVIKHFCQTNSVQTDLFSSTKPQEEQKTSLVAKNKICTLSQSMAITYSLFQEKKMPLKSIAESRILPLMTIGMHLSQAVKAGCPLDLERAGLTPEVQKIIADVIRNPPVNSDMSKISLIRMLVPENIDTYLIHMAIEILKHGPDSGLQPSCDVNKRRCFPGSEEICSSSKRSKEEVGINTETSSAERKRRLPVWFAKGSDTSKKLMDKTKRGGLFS
Outline: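 200 pM enzyme (2× stock) preincubated with compound 4 h at ambient temperature, then 200 μM ATP and 12 nM quenched TAMRA-labelled dsDNA (2× stocks) added for 60 min; EDTA-quenched. Buffer 25 mM Tris pH 8.0, 5 mM NaCl, 2 mM MgCl2. Fluorescence at 525/598 nm; pIC50 from four-parameter fit.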

IC50 [2] | Compound | CC50 [1]
1.58 nM | Cc1cc(C)c(S(=O)(=O)N(C)c2ccc([C@H]3CCC[C@@H](C(=O)Nc4ccc(C(F)(F)F)cc4F)[C@@H]3C(=O)O)cc2)c(C)c1 [Example 103, (1R,2R,6S)-2-((2-fluoro-4-(trifluoromethyl)phenyl)carbamoyl)-6-(4-((N,2,4,6-tetramethylphenyl)sulfonamido)phenyl)cyclohexane-1-carboxylic acid] | 12600 nM
39.8 nM | CN(c1ccc([C@H]2CCC[C@@H](C(=O)Nc3ccc(C(F)(F)F)cc3F)[C@@H]2C(=O)O)cc1)S(=O)(=O)c1c(Cl)cc(C(F)(F)F)cc1Cl [Example 104, (1R,2S,6R)-2-(4-((2,6-dichloro-N-methyl-4-(trifluoromethyl)phenyl)sulfonamido)phenyl)-6-((2-fluoro-4-(trifluoromethyl)phenyl)carbamoyl)cyclohexane-1-carboxylic acid] | 3980 nM
3.16 nM | CN(c1ccc([C@H]2CCC[C@@H](C(=O)Nc3ccc(C(F)(F)F)cc3F)[C@@H]2C(=O)O)cc1)S(=O)(=O)c1ccc2ocnc2c1 [Example 106, (1R,2R,6S)-2-((2-fluoro-4-(trifluoromethyl)phenyl)carbamoyl)-6-(4-(N-methylbenzo[d]oxazole-5-sulfonamido)phenyl)cyclohexane-1-carboxylic acid] | 1580 nM
3.16 nM | CN(c1ccc([C@H]2CCC[C@@H](C(=O)Nc3ccc(C(F)(F)F)cc3F)[C@@H]2C(=O)O)cc1)S(=O)(=O)c1ccc2c(c1)CN(C(=O)C(F)(F)F)CC2 [Example 108, (1R,2R,6S)-2-((2-fluoro-4-(trifluoromethyl)phenyl)carbamoyl)-6-(4-((N-methyl-2-(2,2,2-trifluoroacetyl)-1,2,3,4-tetrahydroisoquinoline)-7-sulfonamido)phenyl)cyclohexane-1-carboxylic acid] | 2000 nM
2.51 nM | CN(c1ccc([C@H]2CCC[C@@H](C(=O)Nc3ccc(C(F)(F)F)cc3F)[C@@H]2C(=O)O)cc1)S(=O)(=O)c1ccc2c(c1)CCN(C(=O)C(F)(F)F)C2 [Example 111, (1R,2R,6S)-2-((2-fluoro-4-(trifluoromethyl)phenyl)carbamoyl)-6-(4-((N-methyl-2-(2,2,2-trifluoroacetyl)-1,2,3,4-tetrahydroisoquinoline)-6-sulfonamido)phenyl)cyclohexane-1-carboxylic acid] | 1580 nM
7.94 nM | CN1CCc2c(cccc2S(=O)(=O)N(C)c2ccc([C@H]3CCC[C@@H](C(=O)Nc4ccc(C(F)(F)F)cc4F)[C@@H]3C(=O)O)cc2)C1 [Example 114, (1R,2S,6R)-2-(4-((N,2-dimethyl-1,2,3,4-tetrahydroisoquinoline)-5-sulfonamido)phenyl)-6-((2-fluoro-4-(trifluoromethyl)phenyl)carbamoyl)cyclohexane-1-carboxylic acid] | 2510 nM
2 nM | CN(c1ccc([C@H]2CCC[C@@H](C(=O)Nc3ccc(C(F)(F)F)cc3F)[C@@H]2C(=O)O)cc1)S(=O)(=O)c1cccc(C2OCCO2)c1 [Example 118, (1R,2S,6R)-2-(4-((3-(1,3-dioxolan-2-yl)-N-methylphenyl)sulfonamido)phenyl)-6-((2-fluoro-4-(trifluoromethyl)phenyl)carbamoyl)cyclohexane-1-carboxylic acid] | 1260 nM
6.31 nM | Cc1nc2ccc(S(=O)(=O)N(C)c3ccc([C@H]4CCC[C@@H](C(=O)Nc5ccc(C(F)(F)F)cc5F)[C@@H]4C(=O)O)cc3)cc2n1C [Example 131, (1R,2R,6S)-2-((2-fluoro-4-(trifluoromethyl)phenyl)carbamoyl)-6-(4-((N,1,2-trimethyl-1H-benzo[d]imidazole)-6-sulfonamido)phenyl)cyclohexane-1-carboxylic acid] | 3980 nM
3.98 nM | CN(c1ccc([C@H]2CCC[C@@H](C(=O)Nc3ccc(C(F)(F)F)cc3F)[C@@H]2C(=O)O)cc1)S(=O)(=O)c1ccc(S(N)(=O)=O)cc1 [Example 133, (1R,2R,6S)-2-((2-fluoro-4-(trifluoromethyl)phenyl)carbamoyl)-6-(4-((N-methyl-4-sulfamoylphenyl)sulfonamido)phenyl)cyclohexane-1-carboxylic acid] | 12600 nM
7.94 nM | CN(c1ccc([C@H]2CCC[C@@H](C(=O)Nc3ccc(C(F)(F)F)cc3F)[C@@H]2C(=O)O)cc1)S(=O)(=O)c1cccc(S(N)(=O)=O)c1 [Example 134, (1R,2R,6S)-2-((2-fluoro-4-(trifluoromethyl)phenyl)carbamoyl)-6-(4-((N-methyl-3-sulfamoylphenyl)sulfonamido)phenyl)cyclohexane-1-carboxylic acid] | 12600 nM
2.51 nM | C=CS(=O)(=O)N(C)c1ccc([C@H]2CCC[C@@H](C(=O)Nc3ccc(C(F)(F)F)cc3F)[C@@H]2C(=O)O)cc1 [Example 135, (1R,2R,6S)-2-((2-fluoro-4-(trifluoromethyl)phenyl)carbamoyl)-6-(4-(N-methylvinylsulfonamido)phenyl)cyclohexane-1-carboxylic acid] | 2510 nM
39.8 nM | COc1cc(S(=O)(=O)N(C)c2ccc([C@H]3CCC[C@@H](C(=O)Nc4ccc(C(F)(F)F)cc4F)[C@@H]3C(=O)O)cc2)ccc1Br [Example 136, (1R,2S,6R)-2-(4-((4-bromo-3-methoxy-N-methylphenyl)sulfonamido)phenyl)-6-((2-fluoro-4-(trifluoromethyl)phenyl)carbamoyl)cyclohexane-1-carboxylic acid] | 3160 nM
7.94 nM | Cc1nc2cc(S(=O)(=O)N(C)c3ccc([C@H]4CCC[C@@H](C(=O)Nc5ccc(C(F)(F)F)cc5F)[C@@H]4C(=O)O)cc3Br)ccc2n1C [Example 166, (1R,2S,6R)-2-(3-bromo-4-((N,1,2-trimethyl-1H-benzo[d]imidazole)-5-sulfonamido)phenyl)-6-((2-fluoro-4-(trifluoromethyl)phenyl)carbamoyl)cyclohexane-1-carboxylic acid] | 2510 nM
5.01 nM | Cc1nc2cc(S(=O)(=O)N(C)c3ccc([C@H]4CCC[C@@H](C(=O)Nc5ccc(C(F)(F)F)cc5F)[C@@H]4C(=O)O)cc3C#CC(C)(C)O)ccc2n1C [Example 167, (1R,2R,6S)-2-((2-fluoro-4-(trifluoromethyl)phenyl)carbamoyl)-6-(3-(3-hydroxy-3-methylbut-1-yn-1-yl)-4-((N,1,2-trimethyl-1H-benzo[d]imidazole)-5-sulfonamido)phenyl)cyclohexane-1-carboxylic acid] | 20000 nM
20 nM | Cc1nc2cc(S(=O)(=O)N(C)c3ccc([C@H]4CCC[C@@H](C(=O)NC56CC(CC(F)(F)F)(C5)C6)[C@@H]4C(=O)O)cc3)ccc2n1C [Example 174, (1R,2R,6S)-2-((3-(2,2,2-trifluoroethyl)bicyclo[1.1.1]pentan-1-yl)carbamoyl)-6-(4-((N,1,2-trimethyl-1H-benzo[d]imidazole)-5-sulfonamido)phenyl)cyclohexane-1-carboxylic acid] | 10000 nM
3.16 nM | Cc1nc2cc(S(=O)(=O)N(C)c3ccc([C@H]4CCC[C@@H](C(=O)Nc5ccc(C6CCC6)cc5F)[C@@H]4C(=O)O)cc3)ccc2n1C [Example 175, (1R,2R,6S)-2-((4-cyclobutyl-2-fluorophenyl)carbamoyl)-6-(4-((N,1,2-trimethyl-1H-benzo[d]imidazole)-5-sulfonamido)phenyl) cyclohexane-1-carboxylic acid] | 1580 nM
1.26 nM | CC[C@H]1CC[C@H](NC(=O)[C@@H]2CCC[C@H](c3ccc(N(C)S(=O)(=O)c4ccc5c(c4)nc(C)n5C)cc3)[C@H]2C(=O)O)CC1 [Example 176, (1R,2R,6S)-2-(((1r,4R)-4-ethylcyclohexyl)carbamoyl)-6-(4-((N, 1,2-trimethyl-1H-benzo[d]imidazole)-5-sulfonamido)phenyl)cyclohexane-1-carboxylic acid] | 1260 nM
2.51 nM | Cc1nc2cc(S(=O)(=O)N(C)c3ccc([C@H]4CCC[C@@H](C(=O)N[C@H]5CC[C@H](C(C)(C)F)CC5)[C@@H]4C(=O)O)cc3)ccc2n1C [Example 182, (1R,2R,6S)-2-(((1r,4R)-4-(2-fluoropropan-2-yl)cyclohexyl)carbamoyl)-6-(4-((N, 1,2-trimethyl-1H-benzo[d]imidazole)-5-sulfonamido)phenyl)cyclohexane-1-carboxylic acid] | 1580 nM
6.31 nM | Cc1nc2cc(S(=O)(=O)N(C)c3ccc([C@H]4CCC[C@@H](C(=O)NC56CC(C7CCCC7)(C5)C6)[C@@H]4C(=O)O)cc3)ccc2n1C [Example 187, (1R,2R,6S)-2-((3-cyclopentylbicyclo[1.1.1]pentan-1-yl)carbamoyl)-6-(4-((N,1,2-trimethyl-1H-benzo[d]imidazole)-5-sulfonamido)phenyl)cyclohexane-1-carboxylic acid, formic acid salt] | 3980 nM
2.51 nM | Cc1nc2cc(S(=O)(=O)N(C)c3ccc([C@H]4CCC[C@@H](C(=O)N[C@H]5CC[C@H](C6CCC6)CC5)[C@@H]4C(=O)O)cc3)ccc2n1C [Example 188, (1R,2R,6S)-2-(((1r,4R)-4-cyclobutylcyclohexyl)carbamoyl)-6-(4-((N,1,2-trimethyl-1H-benzo[d]imidazole)-5-sulfonamido)phenyl)cyclohexane-1-carboxylic acid] | 2510 nM

Compound | IC50 [2] | CC50 [1]
CN(c1ccc([C@H]2CCC[C@@H](C(=O)Nc3ccc(C(F)(F)F)cc3F)[C@@H]2C(=O)O)cc1)S(=O)(=O)c1ccc(C2CCN(C(=O)OC(C)(C)C)CC2)cc1 [Example 115, (1R,2S,6R)-2-(4-((3-(1-(tert-butoxycarbonyl)piperidin-4-yl)-N-methylphenyl)sulfonamido)phenyl)-6-((2-fluoro-4-(trifluoromethyl)phenyl)carbamoyl)cyclohexane-1-carboxylic acid] | 5.01 nM | 1260 nM
